Measurements as given in patent US11213527B2, “Inhibitory effect of low molecular weight compound on cancer and fibrosis” (NATIONAL UNIVERSITY CORPORATION TOTTORI UNIVERSITY, priority 2014, dated 2022).

How the values were obtained:
[1] = system: liver cancer cell line HLF (CD90); assay: FACS analysis of CD90-expressing cells; assay type: cell-based, human; conditions: 0.5 μM 5-FU, 50 μM IC-2, two days, DMSO 21.8%
Description: A liver cancer cell line HLF was seeded at 1.5×10^6 cells/dish on 10-cm dishes. Next, the cells were cultured at 37° C. and 5% CO2. After 24 hours, 1% DSMO, 0.5 μM 5-FU, or 50 μM IC-2 was added thereto and the cells were further incubated. Two days after the chemical treatment, the cells were harvested. Then, the cells were blocked in 0.5% BSA/0.5% FBS/2 mM EDTA/PBS. Subsequently, 5 μL of an APC-labeled mouse anti-human CD90 antibody (BD Biosciences, San Jose, Calif., USA) was added to 500 μL of a cell suspension and the resulting mixture was resuspended and incubated at 4° C. for 10 min to carry out a primary antibody reaction. After the antibody reaction, the cells were washed twice with 0.5% FBS/2 mM EDTA/PBS and once with 5% FBS/2 mM EDTA/DMEM. Next, the cells were resuspended in 500 μL of 5% FBS/2 mM EDTA/PBS. Then, 1 μg/mL of propidium iodide was added thereto. After that, the mixture was made to pass through a tube with a 40-μm mesh filter. Finally, a Beckman Coulter-MoFlo XDP was used to analyze CD90-expressing cells. […] The concentration of IC-2 was determined on the basis of a concentration at which a Wnt/β-catenin signal was inhibited.

[2] = system: CD44-positive HuH7 cells (cancer stem cells); assay: Inhibitory effect on cancer stem cells (FACS analysis, CD44); assay type: cell-based, human; conditions: IC-2 50 μM, PN3-13 10 μM, 5-FU 0.5 μM, two days, vs DMSO control
Description: The following protocol was used to investigate an inhibitory effect of each low-molecular-weight compound on cancer stem cells. CD44, a cancer stem cell marker, was used as an index. HuH7 cells at 70 to 90% confluency were collected and 1.5×10^6 cells were seeded on a 10-cm dish (TPP Techno Plastic Products AG, Trasadingen, Switzerland). After 15 hours, the cells were treated with each of Hexachlorophene (15 μM), ICG-001 (15 μM), PKF118-310 (5 μM), IC-2 (50 μM), PN3-13 (10 μM), and 5-FU (0.5 μM) and were incubated at 37° C. DMSO, which was a solvent for each of the low-molecular-weight compounds and anti-cancer drugs, was used as a control. Two days after the chemical treatment, the cells on a dish were collected. Next, the cells were centrifuged at 1000 rpm for 5 min at 4° C. to remove a supernatant. Then, the cells were washed twice with 1 mL of 0.5% FBS/2 mM EDTA/PBS. After that, the cells were suspended in 500 μL of 5% BSA/0.5% FBS/2 mM EDTA/PBS and blocked once for 15 min at 4° C.
Next, 5 μL of an anti-human CD44 monoclonal antibody (Cell Signaling Technology Inc., Danvers, Mass., USA) was added. Then, the cells were suspended and a primary antibody reaction was performed in a dark room for 10 min at 4° C. After that, the cells were washed 3 times with 1 mL of PBS. […] Note that a significant difference was evaluated by using Student's t-test (two-tailed). […]

[3] = system: CD44-expressing HSC2 cells; assay: Inhibitory effect on cancer stem cells in squamous cell carcinoma (CD44 FACS); assay type: cell-based, human; conditions: 5-FU 0.5 μM, IC-2 25 μM, PN-3-13 7.5 μM, HC-1 50 μM, 48 hours, no treatment 83.9%
Description: First, 5×10^5 of HSC2 cells were plated on a 10-cm dish. After 24 hours, the cells were treated with 5-FU (0.5 μM), IC-2 (25 μM), PN-3-13 (7.5 μM), or HC-1 (50 μM). Also, some of the cells were prepared without low-molecular-weight compound treatment (0 μM). After additional 48 hours, the cells were harvested. An anti-human CD44 antibody (Abcam Ltd., Cambridge, UK) was used as a primary antibody and an Alexa 488-labeled goat anti-mouse IgG antibody (Life Technologies Corp., Carlsbad, Calif., USA) was then used. After that, analysis was performed by using a cell sorter, BD bioscience FACS Aria (BD Biosciences, CA, USA). Note that the concentration of each low-molecular-weight compound was determined on the basis of the IC50 concentration at 48 hours in a WST assay.

[4] = system: CD44-positive HuH7 cells; assay: Liver cancer model mice, CD44-positive HuH7 cells subcutaneously transplanted; assay type: in vivo; conditions: for change in the body weight: 50 mg/kg IC-2 or 30 mg/kg 5-FU intraperitoneally every 3 days
Description: CD44-positive HuH7 cells were subcutaneously transplanted into mice. The mice were then divided into 3 groups (DMSO group: 5 mice; 5-FU group: 4 mice; and IC-2 group: 4 mice). Subsequently, 30 mg/kg of 5-FU, 50 mg/kg of IC-2, or DMSO (as a control), which was a solvent for each chemical, was intraperitoneally administered every 3 days. The body weight and the tumor length and width of each mouse were measured every 3 days. The tumor volume was calculated by using the following equation: Tumor volume=Length×(Width)^2×0.5. The volume at Day 0 was used to normalize each tumor volume, and then a graph was created. To sufficiently evaluate an effect of 5-FU, the dosage that was usually […] in research articles was doubled to set a 5-FU dose. The IC-2 concentration corresponding to a concentration at which a Wnt/β-catenin signal was inhibited in vitro was calculated. Then, the concentration was doubled to set an IC-2 dose.

## O=c1[nH]cc(F)c(=O)[nH]1 [5-FU, reference compound]
[1]
  proportion of the CD90-expressing cells: 24.1%
[2]
  number of cancer stem cells (CD44-positive cells): rather increased the number of cancer stem cells
[3]
  proportion of CD44-expressing cells: 83.3%
[4]
  change in the body weight: no observable change in the body weight

## O=C1[C@H](Cc2ccccc2)N2C(=O)CCN(C(=O)NCc3ccccc3)[C@H]2CN1Cc1cccc2ccccc12 [IC-2]
[1]
  proportion of the CD90-expressing cells: 13.5%
[2]
  number of cancer stem cells (CD44-positive cells): significantly less than that of the control
[3]
  proportion of CD44-expressing cells: 71.4%
[4]
  change in the body weight: no observable change in the body weight
[4]; 50 mg/kg IC-2 vs 30 mg/kg 5-FU intraperitoneally every 3 days
  therapeutic effect of treating a malignant tumor (tumor volume): significantly higher therapeutic effect of treating a malignant tumor than that of 5-FU
